# Assay results: US20260055108A1, “TRIAZINE COMPOUNDS AND USES THEREOF” (HUTCHMED LIMITED, priority 2022, published 2026)
# Where two headings read alike, the source gives them in different places.
# Legend:
# [1] = tested on: MV-4-11 cells (human acute myelogenous leukemia cell line carrying MLL-AF4 mutation); experiment: Cell proliferation assay, MV-4-11 (CellTiter-Glo); type: cell-based; conditions: Homo sapiens, MV4-11, 72 h
# Experimental: Example 4 Cell Proliferation Assay
# MV-4-11 (ATCC, CRL-9591), a human acute myelogenous leukemia cell line carrying MLL-AF4 mutation. Cells were cultured in an IMDM medium containing 10% heat-inactivated fetal bovine serum (HIFBS) and supplemented with 50 μM β-mercaptoethanol.
# 2. Reagents, Materials and Instruments:
# • IMDM culture solution: GIBCO, 12440-053; • HIFBS: GIBCO, 10100-147; • β-mercaptoethanol: Sigma, M3148; • CellTiter-Glo® 2.0 assay kit (CTG): Promega, G9243; • DMSO: Sigma, D4540; • 96-well cell culture plate: Corning, 3903; • Envision: PerkinElmer.
# MV-4-11 cells were resuspended in a medium, added to a 96-well plate at a density of 3000 cells/well with a volume of 100 μL/well, and cultured in a cell incubator at 5% CO2 and 37° C. for 4 hours. The test compound subjected to gradient dilution with the medium was added to a cell culture plate, and the final concentrations of the compound were 1.100, 0.367, 0.122, 0.041, 0.014, 0.005, 0.002 and 0.001 μM, respectively. The corresponding volume of DMSO diluent was added to a blank control well, and the final concentrations of DMSO in the experimental group and control group were both 0.1%. The cell plate was placed in a cell incubator at 5% CO2 and 37° C. and cultured for 3 days.
# On day 0 and day 3 of the treatment, 50 μL/well CTG reagent was added to the cell plate and shaken at room temperature in the dark for 10 min, and then the chemiluminescence value of each well was measured with Envision.
# [formula] • wherein: • luminescence valuetest sample: the chemiluminescence value of a cell well treated with the test compound for 3 days. • luminescence valueday 0: the chemiluminescence value of a cell well at day 0. • luminescence valuecell well: the chemiluminescence value of a cell well not treated with the compound for 3 days.
# (§1) • calculated by using software XL-Fit™ (version 5.3) supplied by ID Business Solutions (Guildford, UK), which is an additional software to Microsoft Excel.
# [2] = molecular target: Recombinant human Menin protein (2-610) / MLL polypeptide binding (Homo sapiens (Human), UniProt O00255); experiment: Menin and MLL protein binding at a molecular level (fluorescence polarization method); conditions: inhibition of Menin / MLL polypeptide binding
# Recombinant human Menin protein (2-610) / MLL polypeptide binding, sequence (O00255 2-610): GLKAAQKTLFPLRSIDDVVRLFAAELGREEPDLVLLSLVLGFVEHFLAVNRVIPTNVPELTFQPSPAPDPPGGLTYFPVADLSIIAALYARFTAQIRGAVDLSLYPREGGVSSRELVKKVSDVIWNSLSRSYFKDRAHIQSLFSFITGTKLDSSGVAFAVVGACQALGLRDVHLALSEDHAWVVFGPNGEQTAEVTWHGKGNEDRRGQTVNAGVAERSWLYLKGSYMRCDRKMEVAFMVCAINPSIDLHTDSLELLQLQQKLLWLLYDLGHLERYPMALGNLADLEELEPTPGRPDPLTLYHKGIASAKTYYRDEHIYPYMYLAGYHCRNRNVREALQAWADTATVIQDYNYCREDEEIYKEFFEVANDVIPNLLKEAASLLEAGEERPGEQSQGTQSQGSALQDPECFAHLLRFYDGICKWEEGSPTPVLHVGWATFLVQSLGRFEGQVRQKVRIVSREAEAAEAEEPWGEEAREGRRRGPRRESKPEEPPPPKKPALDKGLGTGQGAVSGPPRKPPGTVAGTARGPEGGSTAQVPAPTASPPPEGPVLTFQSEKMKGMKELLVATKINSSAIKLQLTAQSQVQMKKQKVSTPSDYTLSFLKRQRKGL
# Description: Example 3: Determination of the Activity of the Compounds of the Present Invention on Menin and MLL Protein Binding at a Molecular Level (Fluorescence Polarization Method)
# 1. Reagents, Materials and Instruments:
# • Recombinant human Menin protein (2-610): ChemPartner, CP2021020801; • MLL polypeptide (6-FAM-Ahx-SG-40): GL Biochem, 865700; • Trizma® hydrochloride buffer solution (Tris): Sigma, T2194-1 L; • NaCl: Invitrogen, AM9760G; • TCEP: Sigma, 646547; • DMSO: Sigma, D4540; • 384-well plate: Corning, 4514; • Envision: PerkinElmer.
# 2. Preparation of Reaction Solutions
# • 1) Buffer solution: 20 mL of Tris and 4 mL of NaCl were added respectively to 376 mL of ddH2O, with pH adjusted to 7.5, and TCEP was added before testing with a dilution ratio of 1:500. • 2) 5× test compounds: the test compound was subjected to gradient dilution with the buffer solution to 5-fold the reaction concentration, so that the final concentrations of the compound were 1.000, 0.333, 0.111, 0.037, 0.012, 0.004, 0.001 and 0.0005 μM, respectively. • 3) 2.5× Menin protein reaction solution: the Menin protein was diluted to 5 nM with the buffer solution. • 4) 2.5×MLL polypeptide reaction solution: the MLL polypeptide was diluted to 5 nM with the buffer solution.
# 1) Binding Reaction (20 μL System)
# 4 μL of 5× test compound was added to each reaction well of the 384-well plate, and the corresponding volume of 10% DMSO was added to the control wells. Except the control wells, 8 μL of Menin protein reaction solution was added to each well. The reaction solution was incubated at room temperature for 30 minutes, and then 8 μL of MLL polypeptide reaction solution was added to each well. The final concentrations of DMSO in the test compound wells and control wells were all 2%. The 384-well plate was sealed and incubated at room temperature for 30 minutes in the dark.
# Three control groups were set up: • a blank control group only containing a buffer solution; • a negative control group only containing MLL polypeptide reaction solution; and • a positive control group containing Menin protein reaction solution and MLL polypeptide reaction solution.
# The vertical polarization S value and the horizontal polarization P value (excitation wavelength was 480 nm, and emission wavelength was 535 nm) were measured with Envision.
# Corrected S is the S value of the negative control group—the S value of the blank control group
# Corrected P is the P value of the negative control group—the P value of the blank control group
# as §1
# [3] = MV-4-11 cells, 3 days treatment, CellTiter-Glo, read-out: GI50
Compound,"GI50 [1, 3] [µM]",IC50 [2] [µM],GI50 [1] [µM]
"CCN(C(=O)c1cc(F)ccc1Oc1nncnc1N1CC2(CCN(CC3CCN(C(=O)C4CC4)CC3)CC2)C1)C(C)C [Compound 1, 2-((5-(7-((1-(cyclopropanecarbonyl)piperidin-4-yl)methyl)-2,7-diazaspiro[3.5]nonan-2-yl)-1,2,4-triazin-6-yl)oxy)-N-ethyl-5-fluoro-N-isopropylbenzamide]",0.043,0.0136,
CCN(C(=O)c1cc(F)ccc1Oc1nncnc1N1CC2(CCN(CC3CCN(C(=O)C4(C(F)(F)F)CC4)CC3)CC2)C1)C(C)C [Compound 2],0.039,0.03,
CCN(C(=O)c1cc(F)ccc1Oc1nncnc1N1CC2(CCN(CC3CCN(C(=O)C4CCC4)CC3)CC2)C1)C(C)C [Compound 3],0.031,0.0024,
CCN(C(=O)c1cc(F)ccc1Oc1nncnc1N1CC2(CCN(CC3CCN(C(=O)C4CC(C)(C)C4)CC3)CC2)C1)C(C)C [Compound 4],0.008,0.0032,
CCN(C(=O)c1cc(F)ccc1Oc1nncnc1N1CC2(CCN(CC3CCN(C(=O)C4COC4)CC3)CC2)C1)C(C)C [Compound 5],0.058,0.0213,
CCN(C(=O)c1cc(F)ccc1Oc1nncnc1N1CC2(CCN(CC3CCN(C(=O)C4CC(F)(F)C4)CC3)CC2)C1)C(C)C [Compound 6],0.013,0.0067,
CCN(C(=O)c1cc(F)ccc1Oc1nncnc1N1CC2(CCN(CC3CCN(C(=O)CNC4CC4)CC3)CC2)C1)C(C)C [Compound 7],0.08,0.0502,
CCN(C(=O)c1cc(F)ccc1Oc1nncnc1N1CC2(CCN(CC3CCN(C(=O)C4(OC)CC4)CC3)CC2)C1)C(C)C [Compound 8],0.086,0.0346,
CCN(C(=O)c1cc(F)ccc1Oc1nncnc1N1CC2(CCN(CC3CCN(C(=O)COC)CC3)CC2)C1)C(C)C [Compound 9],0.099,0.0376,
CCN(C(=O)c1cc(F)ccc1Oc1nncnc1N1CC2(CCN(CC3CCN(C(=O)C(C)O)CC3)CC2)C1)C(C)C (stereo not shown) [Compound 10],0.187,0.0417,
CCN(C(=O)c1cc(F)ccc1Oc1nncnc1N1CC2(CCN(CC3CCN(C(=O)C4(O)CC4)CC3)CC2)C1)C(C)C [Compound 11],0.02,0.0051,
CCN(C(=O)c1cc(F)ccc1Oc1nncnc1N1CC2(CCN(CC3CCN(C(=O)C4(C#N)CC4)CC3)CC2)C1)C(C)C [Compound 12],0.036,0.0198,
CCN(C(=O)c1cc(F)ccc1Oc1nncnc1N1CC2(CCN(CC3CCN(C(=O)CC#N)CC3)CC2)C1)C(C)C [Compound 13],0.02,0.0145,
CCN(C(=O)c1cc(F)ccc1Oc1nncnc1N1CC2(CCN(CC3CCN(C(=O)c4ccccc4F)CC3)CC2)C1)C(C)C [Compound 14],0.027,0.0295,
CCN(C(=O)c1cc(F)ccc1Oc1nncnc1N1CC2(CCN(CC3CCN(C(=O)c4ccccn4)CC3)CC2)C1)C(C)C [Compound 15],0.044,0.0418,
CCN(C(=O)c1cc(F)ccc1Oc1nncnc1N1CC2(CCN(CC3CCN(C(=O)c4cnn(C)c4)CC3)CC2)C1)C(C)C [Compound 16],0.113,0.075,
CCN(C(=O)c1cc(F)ccc1Oc1nncnc1N1CC2(CCN(Cc3ccc(NC(=O)CC#N)cc3C)CC2)C1)C(C)C [Compound 17],0.05,0.0487,
"C=CC(=O)N1CC(C(=O)N2CCC(CN3CCC4(CC3)CN(c3ncnnc3Oc3ccc(F)cc3C(=O)N(CC)C(C)C)C4)CC2)C1 [Compound 18, 2-((5-(7-((1-(1-acryloylazetidine-3-carbonyl)piperidin-4-yl)methyl)-2,7-diazaspiro[3.5]nonan-2-yl)-1,2,4-triazin-6-yl)oxy)-N-ethyl-5-fluoro-N-isopropylbenzamide]",,0.0146,0.012
"CCN(C(=O)c1cc(F)ccc1Oc1nncnc1N1CC2(CCN(CC3CCN(C(=O)C4(C(=O)N(C)C)CC4)CC3)CC2)C1)C(C)C [Compound 19, 2-((5-(7-((1-(1-(dimethylcarbamoyl)cyclopropane-1-carbonyl)piperidin-4-yl)methyl)-2,7-diazaspiro[3.5]nonan-2-yl)-1,2,4-triazin-6-yl)oxy)-N-ethyl-5-fluoro-N-isopropylbenzamide]",,,0.667
"C=CC(=O)N1CCC(CN2CCC3(CC2)CN(c2ncnnc2Oc2ccc(F)cc2C(=O)N(CC)C(C)C)C3)CC1 [Compound 20, 2-((5-(7-((1-acryloylpiperidin-4-yl)methyl)-2,7-diazaspiro[3.5]nonan-2-yl)-1,2,4-triazin-6-yl)oxy)-N-ethyl-5-fluoro-N-isopropylbenzamide]",0.058,0.0987,
CCN(C(=O)c1cc(F)ccc1Oc1nncnc1N1CC2(CCN(CC3CCN(C(=O)C(F)(F)F)CC3)CC2)C1)C(C)C [Compound 21],0.116,0.0979,
CCN(C(=O)c1cc(F)ccc1Oc1nncnc1N1CC2(CCN(CC3CCN(S(C)(=O)=O)CC3)CC2)C1)C(C)C [Compound 22],0.087,0.112,
CCN(C(=O)c1cc(F)ccc1Oc1nncnc1N1CC2(CCN(Cc3ccc(NS(C)(=O)=O)cc3C)CC2)C1)C(C)C [Compound 23],0.056,0.0232,
CCN(C(=O)c1cc(F)ccc1Oc1nncnc1N1CC2(CCN(CC3CCN(C(=O)N(C)C)CC3)CC2)C1)C(C)C [Compound 24],0.054,0.023,
CCNC(=O)N1CCC(CN2CCC3(CC2)CN(c2ncnnc2Oc2ccc(F)cc2C(=O)N(CC)C(C)C)C3)CC1 [Compound 28],0.009,,
CCN(C(=O)c1cc(F)ccc1Oc1nncnc1N1CC2(CCN(Cc3ccc4nccn4c3)CC2)C1)C(C)C [Compound 63],,> 1,
CCN(C(=O)c1cc(F)ccc1Oc1nncnc1N1CC2(CCN(Cc3ccc4[nH]c(C(=O)NC)cc4c3)CC2)C1)C(C)C [Compound 65],,0.0839,
CCN(C(=O)c1cc(F)ccc1Oc1nncnc1N1CC2(CCN(CC3CCN(C4=NN5CCC(=O)N=C5C=C4)CC3)CC2)C1)C(C)C [Compound 83],,0.222,
COc1cc(N2CCC(CN3CCC4(CC3)CN(c3ncnnc3Oc3ccc(F)c5nn(C(C)C)cc35)C4)CC2)nnc1OC [Compound 105],,0.483,
